# Assay results taken from patent US20260137697A1, “THIAZOLO[5,4-D]PYRIMIDINE COMPOUNDS, COMPOSITIONS COMPRISING THEM AND USES THEREOF” (University de Montreal, priority 2022, published 2026).
# Assays:
# BRAF = target: T1, BRAF (Homo sapiens, UniProt P15056); experiment: BRAF kinase activity assay (ADP-Glo); assay type: biochemical; settings: Table 3; 10 μM ATP, kinase-dead MEK1 substrate
# T1 construct: GST; purchased Millipore Sigma B4062-10UG
# Experimental: (§1) Compound preparation: solid samples of each substance in 1dram vials were suspended in DMSO (Fisher Scientific) at a stock concentration of 20 mM. Stocks were kept at −20° C. and protected from light. If solubility of the compound at 20 mM appeared to be an issue, the initial concentration of the DMSO stock was changed to 10 mM or 5 mM.
# (§2) In vitro enzymatic reactions were used for evaluating compounds intrinsic activity against BRAF, CRAF and ARAF. For BRAF and CRAF, 0.375 nM of purified GST-tagged kinases (cat. No. B4062-10UG and cat. No. R1656-10UG respectively from Millipore Sigma) were incubated with 75 nM of kinase-dead MEK1 substrate (cat. No. 40075; BPS Bioscience) in the presence of 10 μM of Ultrapure ATP (cat. No. V9102; Promega; part V915A) with and without the test compound in a buffer containing 50 mM HEPES pH 7.5, 10 mM MgCl2, 1 mM EDTA, 0.01% Brij-35 and 2 mM DTT. Separate reactions were performed with the MEK1 substrate and ATP as a blank control. ARAF kinase reactions were rigorously the same with the exception that kinase concentration was raised to 3.75 nM (cat. No. 1768-0000-1; Reaction Biology).
# (§3) For compound treatment, 5 μL/well of test substance solution are placed in a 384-well proxyplate (Perkin Elmer) and mixed with 2× concentrated kinase reactions. The dilution series is selected so that nine concentrations cover a range from 100 nM to 0.01 nM. […] The final concentration of DMSO in the assay is set at 0.05%.
# (§4) BRAF and CRAF kinase reactions were carried out for a total of 2 hours at 30° C. and then stopped by 1/2 dilution in ADP-Glo Reagent (cat. No. V9102; Promega; part V912C). Reactions were then incubated for 1 h at room temperature before addition of one volume of Kinase Detection Reagent (cat. No. V9102; Promega; part V917A). Plates were then equilibrated at room temperature for 30 minutes before detection of luminescence on a Synergy Neo2 plate reader (Biotek). The effect of each compound dilution on BRAF and CRAF kinase activity was expressed as % inhibition and calculated as follows. First, the internal 100% inhibition control (average of luminescence in kinase reactions comprising kinase dead MEK1 substrate alone) was subtracted from each data point. The average of DMSO (vehicle) controls (set as 0% inhibition) was established and used to calculate % inhibition:
# (§5) IC50 values were obtained by plotting the kinase inhibition values and fitting the dose-activity curves using a log(agonist) versus response—variable slope (four parameters) function using either GraphPadPrism (V7.0) or Dotmatics Screening Ultra platform. Standards included in the ARAF kinase assay were Belvarafenib (MedChem Express cat. No. HY-109080; CAS No. 1446113-23-0), LXH254 (MedChem Express cat. No. HY-112089; CAS No. 1800398-38-2) and BGB283 (cat. No. HY-18957; CAS No. 1446090-79-4).
# CRAF = target: T2, CRAF (Homo sapiens, UniProt P04049); experiment: CRAF kinase activity assay (ADP-Glo); assay type: biochemical; settings: Table 3; 10 μM ATP, kinase-dead MEK1 substrate
# T2 construct: fused on or other part: GST tag (N-terminal according to the vendor's product)
# Experimental: as §1, §2, §3, §4, §5
# pERK, HCT116 cells = experiment: Phospho-ERK inhibition, AlphaLISA p-ERK 1/2, HCT-116; assay type: cell-based, human; settings: Table 3; for IC50: HCT116 cells (KRAS G13D), 1 h treatment; for HCT116 pERK (Ymin %): lowest % inhibition value of the pERK IC50 curve, above −20% = no paradoxical induction
# Experimental: All cancer cell lines (A375, A101D, A2058, RKO, HT29 SK-MEL 30, IPC298, HepG2, HCT-116, Lovo, SW620, SW480, NCI-H358, NCI-H2122, Calu-6, NCIH2087, NCIH1755, NCIH1666 and Mewo) were obtained from ATCC and cultured in RPM1-1640 medium (Gibco) supplemented with 5% heat inactivated fetal bovine serum (FBS, Wisent) at 37° C. under 5% CO2. Cells were maintained in T175 flasks (Greiner). They were passaged by removing the culture medium, washing once in 10 mL of room temperature Phosphate Buffered Saline (PBS; Wisent) and incubating at 37° C. with 2 mL of 0.05% Trypsin (Thermo-Fisher). Trypsin was then inactivated by adding complete growth medium and the cells were then replated in a T175 culture dish at the appropriate dilution. All cell lines were routinely tested for mycoplasma contamination. Tissue type and mutational status of each cell line can be found in Table B.
# (c) Measurement of Phospho-ERK Inhibition in Cultivated Human Cancer Cell Lines by the AlphaLISA® SureFire® Ultra™ p-ERK 1/2 (Thr2O2/Tyr204)
# AlphaLISA® SureFire® Ultra™ p-ERK 1/2 (Thr202/Tyr204) analysis was conducted on cells plated in 100 μL of complete RPMI-1640 growth medium in 96-well flat-bottomed transparent dishes (Costar) at a density indicated in Table C. Cells were maintained overnight at 37° C. under 5% CO2 before treatment with compounds' dilution series for one hour. The cell density in cells/cm^2 corresponds to cell number divided by the area of one well of a 96-well plate (0.143 cm^2).
# In a dilution series 100 μL/well of test substance dilution prepared in complete RPMI-1640 growth media was added to the cells. The dilution series is selected so that ten concentrations cover a range from 10 μM to 0.33 nM. If necessary, the initial concentration of 10 μM is increased to 100 μM or lowered to 1 μM (as in the case of A375 and H1666 cells, which are generally more sensitive to the compounds) and further dilution is carried out accordingly. The final concentration of DMSO in the assay is set at 0.5%.
# After treatment, media was removed, and cells were lysed in 50 μL of 1× AlphaScreen Ultra Lysis Buffer (Perkin Elmer). The AlphaLISA® SureFire® Ultra™ p-ERK 1/2 (Thr202/Tyr204) (PerkinElmer) reactions were performed with 5 μL of cell lysate according to the manufacturer's specifications in 384-well proxyplates (Perkin Elmer) followed by overnight incubation of the reactions at room temperature in a humidified chamber. After completion of the reactions, the signals were recorded on an EnVision plate reader (Perkin Elmer) using built in AlphaLISA® settings.
# The effect of each compound dilution on the pERK signal was expressed in % inhibition and calculated as follows. An internal 100% inhibition control (1 μM trametinib, cat. No. HY-10999; MedChem Express; CAS No. 871700-17-3) was included in each plate and used as a measure of pERK background. First, the value obtained for trametinib was subtracted from each data point. The average of DMSO (vehicle) controls (set as 0% inhibition) was established and used to calculate % inhibition:
# The ability of each compound to inhibit pERK signal was expressed as an IC50 value obtained by plotting the inhibition values for each data point of a dilution series and fitting the obtained curves using a log(agonist) versus response—variable slope (four parameters) function using GraphPadPrism (V7.0) or Dotmatics Screening Ultra platform.
# When present, paradoxical pERK induction is inferred from the negative % inhibition values observed in the pERK IC50 curves of a compound.
# T2 sequence (P04049 whole entry Y340E/Y341E, form open, the tested form may be a part): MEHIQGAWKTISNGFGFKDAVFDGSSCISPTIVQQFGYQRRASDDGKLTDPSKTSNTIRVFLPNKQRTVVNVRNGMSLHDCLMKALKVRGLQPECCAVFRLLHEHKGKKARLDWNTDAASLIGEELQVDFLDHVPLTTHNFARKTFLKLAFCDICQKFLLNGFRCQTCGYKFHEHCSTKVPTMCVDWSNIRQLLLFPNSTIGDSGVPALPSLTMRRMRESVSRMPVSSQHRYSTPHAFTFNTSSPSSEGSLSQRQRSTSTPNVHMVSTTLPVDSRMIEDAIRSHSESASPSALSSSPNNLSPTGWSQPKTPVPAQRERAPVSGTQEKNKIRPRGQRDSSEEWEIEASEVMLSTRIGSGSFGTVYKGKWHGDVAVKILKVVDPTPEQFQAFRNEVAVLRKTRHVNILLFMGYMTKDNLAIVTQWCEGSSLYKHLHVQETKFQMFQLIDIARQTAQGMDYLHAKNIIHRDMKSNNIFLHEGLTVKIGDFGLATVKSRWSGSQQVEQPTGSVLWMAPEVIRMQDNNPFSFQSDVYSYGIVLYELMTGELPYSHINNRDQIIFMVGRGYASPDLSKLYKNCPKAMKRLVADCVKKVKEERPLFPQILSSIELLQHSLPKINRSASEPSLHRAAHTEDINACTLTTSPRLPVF
# T1 sequence (P15056 whole entry): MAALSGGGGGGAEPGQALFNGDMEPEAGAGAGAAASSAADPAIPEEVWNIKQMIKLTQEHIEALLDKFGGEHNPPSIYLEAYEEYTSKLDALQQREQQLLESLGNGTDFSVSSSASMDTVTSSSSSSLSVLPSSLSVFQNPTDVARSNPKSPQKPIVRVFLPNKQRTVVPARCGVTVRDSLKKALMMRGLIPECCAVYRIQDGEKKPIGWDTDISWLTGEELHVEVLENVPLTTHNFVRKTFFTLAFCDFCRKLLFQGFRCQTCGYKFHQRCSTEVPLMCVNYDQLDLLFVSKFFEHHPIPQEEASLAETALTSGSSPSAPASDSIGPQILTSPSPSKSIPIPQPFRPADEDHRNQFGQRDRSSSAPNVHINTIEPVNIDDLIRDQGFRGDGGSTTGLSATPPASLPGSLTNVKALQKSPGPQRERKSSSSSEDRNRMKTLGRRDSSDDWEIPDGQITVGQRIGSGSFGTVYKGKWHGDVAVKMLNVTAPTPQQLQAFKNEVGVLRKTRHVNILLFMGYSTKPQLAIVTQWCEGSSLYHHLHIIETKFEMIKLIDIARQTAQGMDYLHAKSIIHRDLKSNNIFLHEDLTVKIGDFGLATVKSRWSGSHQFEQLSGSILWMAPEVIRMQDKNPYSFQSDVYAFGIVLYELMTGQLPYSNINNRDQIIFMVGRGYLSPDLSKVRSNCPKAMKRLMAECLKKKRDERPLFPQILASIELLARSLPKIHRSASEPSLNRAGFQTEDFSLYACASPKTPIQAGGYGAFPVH
SMILES,IC50 (BRAF),IC50 (CRAF),"IC50 (pERK, HCT116 cells)","HCT116 pERK (Ymin %) (pERK, HCT116 cells)","IC50 (pERK, HCT116 cells; Homo sapiens, HCT-116)"
O=S(=O)(Nc1ccc(F)c(Nc2ncnc3sc(-n4cc(S(=O)(=O)N5C6CCC5COC6)c5ccccc54)nc23)c1F)c1cccc(Cl)c1Cl [Example 67],1 to 10 nM,> 50 nM,< 500 nM,0%,
O=S(=O)(Nc1ccc(F)c(Nc2ncnc3sc(-n4ccc5ncccc54)nc23)c1F)c1cccc(Cl)c1Cl [Example 115],1 to 10 nM,< 10 nM,< 500 nM,−11%,
O=S(=O)(Nc1ccc(F)c(Nc2ncnc3sc(-n4cnc(-c5ccccc5)c4)nc23)c1F)c1cccc(Cl)c1Cl [Example 109],> 10 nM,> 50 nM,500 to 1000 nM,−13%,
CCS(=O)(=O)c1cn(-c2nc3c(Nc4c(F)ccc(NS(=O)(=O)c5cccc(Cl)c5Cl)c4F)ncnc3s2)c2ccccc12 [Example 63],1 to 10 nM,10 to 50 nM,< 500 nM,−5%,
O=C(c1cn(-c2nc3c(Nc4c(F)ccc(NS(=O)(=O)c5cccc(Cl)c5Cl)c4F)ncnc3s2)c2ccccc12)N1C2CCC1COC2 [Example 51],< 1 nM,< 10 nM,< 500 nM,−1%,
O=S(=O)(Nc1ccc(F)c(Nc2ncnc3sc(-n4cnc5c(N6CCC(O)CC6)cccc54)nc23)c1F)c1cccc(Cl)c1Cl [Example 144],1 to 10 nM,< 10 nM,< 500 nM,−4%,
Cc1c(F)cccc1S(=O)(=O)Nc1ccc(F)c(Nc2ncnc3sc(-n4nc(C(=O)N(C)Cc5cccnc5)c5ccccc54)nc23)c1F [Example 23],> 10 nM,> 50 nM,,,1000 to 10000 nM
O=S(=O)(Nc1ccc(F)c(Nc2ncnc3sc(-n4cnc5cc(F)c(F)cc54)nc23)c1F)c1cccc(Cl)c1Cl [Example 19],1 to 10 nM,< 10 nM,500 to 1000 nM,−14%,
COC[C@@H]1CCCN1c1cccc2c1ncn2-c1nc2c(Nc3c(F)ccc(NS(=O)(=O)c4cccc(Cl)c4Cl)c3F)ncnc2s1 [Example 132],> 10 nM,> 50 nM,1000 to 10000 nM,−11%,
N#Cc1cccc2c1ncn2-c1nc2c(Nc3c(F)ccc(NS(=O)(=O)c4cccc(Cl)c4Cl)c3F)ncnc2s1 [Example 120],1 to 10 nM,< 10 nM,,,< 500 nM
